According to article PMC10511702, “Design, molecular modelling and synthesis of novel benzothiazole derivatives as BCL-2 inhibitors” (Scientific Reports, 2023):

Key:
[1] = system: BCL-2; details: cited from earlier work
[2] = target: T1, recombinant BCL-2 (Homo sapiens, UniProt P10415); test: In vitro BCL-2 inhibitory activity, TR-FRET assay (BPS Bioscience); assay type: binding; details: for IC50: 5 concentrations 1 nM-10 µM; for inhibition at 10 µM: single dose of 10 µM
T1 construct: purchased BPS Bioscience 50272
Method: The in vitro enzyme inhibition determination for the synthesized compounds was carried out in BPS Bioscience Corporation, San Diego, CA, USA (www.bpsbioscience.com). […] The assay was performed by TR-FRET technology using a recombinant BCL-2 and a peptide- ligand substrate. The TR-FRET signal from the assay is correlated with the amount of Ligand binding to BCL-2. […] All of the binding reactions were conducted at room temperature. […] The reaction mixture incubated for 180 min prior to reading the TR-FRET signal. For the background, ligand was replaced with assay buffer. Fluorescence signals for both the donor and acceptor dyes were measured using a Tecan Infinite M1000 plate reader. TR-FRET was recorded as the ratio of the fluorescence of the acceptor and the donor dyes (acceptor/donor). Binding experiments were performed in duplicate at each concentration. The TR-FRET data were analyzed using the computer software, Graphpad Prism. In the absence of the compound in wells containing BCL-2 ligand, the TR-FRET signal (Ft) in each data set was defined as 100% activity. In wells without peptide ligand, the TR-FRET signal (Fb) in each data set was defined as 0% activity. The percent activity in the presence of each compound was calculated according to the following equation: % activity = [(F − Fb)/ (Ft − Fb)] × 100, where F = the TR-FRET signal in the presence of the compound. The percent inhibition was calculated according to the following equation: % inhibition = 100—% activity. IC50 determination for target compounds against BCL-2 was calculated. […] The IC50 value was determined by the concentration causing a half-maximal percent activity.

[3] = system: SR; test: NCI in vitro anti-proliferative single dose screen; assay type: cell-based, human; details: single dose of 10 µM; for Cell growth percent: SR
Method: (§1) The national cancer institute (NCI) in vitro anticancer screening is a two-stage process, beginning with the evaluation of the selected compounds 13c and 13d against NCI leukemia cell line at a single dose of 10 µM. The human leukemia cell line was obtained and maintained at the NCI. The output from the single dose screen is reported as a mean graph. The detailed assay protocol is discussed in the supporting material.
(§2) This assay was performed for compounds 13c and 13d by the Developmental Therapeutics Program (DTP) of the National Cancer Institute (NCI), division of cancer treatment and diagnosis, NIH, Bethesda, Maryland, USA (www.dtp.nci.nih.gov). The operation of this screen utilizes leukemia human tumor cell line[37]. The human tumor cell lines of the cancer screening panel were grown in RPMI 1640 medium containing 5% fetal bovine serum and 2 mM L-glutamine.
(§3) Results for the two compounds were reported as a mean graph of the percent growth of the treated cells when compared to the untreated control cells. The results are expressed as cell growth percent for the tested compounds on each of the used NCI cell line panels.
(§4) The human tumor cell lines of the cancer screening panel were grown in RPMI 1640 medium containing 5% fetal bovine serum and 2 mM L-glutamine. For a typical screening experiment, cells are inoculated into 96 well microtiter plates in 100 µL at plating densities ranging from 5,000 to 40,000 cells/well depending on the doubling time of individual cell lines. After cell inoculation, the microtiter plates are incubated at 37° C, 5 % CO2, 95 % air and 100 % relative humidity for 24 hrs prior to addition of experimental drugs. After 24 hrs, two plates of each cell line are fixed in situ with trichloroacetic acid (TCA), to represent a measurement of the cell population for each cell line at the time of drug addition (Tz). Experimental drugs are solubilized in dimethyl sulfoxide at 400-fold the desired final maximum test concentration and stored frozen prior to use. At the time of drug addition, an aliquot of frozen concentrate is thawed and diluted to twice the desired final maximum test concentration with complete medium containing 50 µg/mL gentamicin. Additional four, 10-fold or ½ log serial dilutions are made to provide a total of five drug concentrations plus control. Aliquots of 100 µl of these different drug dilutions are added to the appropriate microtiter wells already containing 100 µl of medium, resulting in the required final drug concentrations.
(§5) Following drug addition, the plates are incubated for an additional 48 hrs at 37°C, 5 % CO2, 95 % air, and 100 % relative humidity. For adherent cells, the assay is terminated by the addition of cold TCA. Cells are fixed in situ by the gentle addition of 50 µl of cold 50 % (w/v) TCA (final concentration, 10 % TCA) and incubated for 60 minutes at 4°C. The supernatant is discarded, and the plates are washed five times with tap water and air dried. Sulforhodamine B (SRB) solution (100 µl) at 0.4 % (w/v) in 1 % acetic acid is added to each well, and plates are incubated for 10 minutes at room temperature. After staining, unbound dye is removed by washing five times with 1 % acetic acid and the plates are air dried. Bound stain is subsequently solubilized with 10 mMtrizma base, and the absorbance is read on an automated plate reader at a wavelength of 515 nm. For suspension cells, the methodology is the same except that the assay is terminated by fixing settled cells at the bottom of the wells by gently adding 50 µl of 80 % TCA (final concentration, 16 % TCA).
(§6) Using the seven absorbance measurements [time zero, (Tz), control growth, (C), and test growth in the presence of drug at the five concentration levels (Ti)], the percentage growth is calculated at each of the drug concentrations levels. Percentage growth inhibition is calculated as: […]

[4] = system: HL-60(TB); test: NCI in vitro anti-proliferative single dose screen; assay type: cell-based, human; details: single dose of 10 µM
Method: as §1, §2, §3, §4, §5, §6

[5] = system: CCRF-CEM; test: NCI in vitro anti-proliferative single dose screen; assay type: cell-based, human; details: single dose of 10 µM
Method: as §1, §2, §3, §4, §5, §6

[6] = system: RPMI-8226; test: NCI in vitro anti-proliferative single dose screen; assay type: cell-based, human; details: RPMI-8226, single dose of 10 µM
Method: as §1, §2, §3, §4, §5, §6

[7] = system: MOLT-4; test: NCI in vitro anti-proliferative single dose screen; assay type: cell-based, human; details: MOLT-4, single dose of 10 µM
Method: as §1, §2, §3, §4, §5, §6

[8] = system: K-562; test: NCI in vitro anti-proliferative single dose screen; assay type: cell-based, human; details: K-562, single dose of 10 µM
Method: as §1, §2, §3, §4, §5, §6

[9] = system: NCI leukemia cell line; test: NCI in vitro anti-proliferative screen, leukemia panel as a whole; assay type: cell-based, human; details: single dose of 10 µM
Method: as §1
as §2, with “The human tumor cell lines of the cancer screening panel were grown in RPMI 1640 medium containing 5% fetal bovine serum and 2 mM L-glutamine.” left out
Results for the two compounds were reported as a mean graph of the percent growth of the treated cells when compared to the untreated control cells. The results are expressed as cell growth percent for the tested compounds on each of the used NCI cell line panels. […]
Following drug addition, the plates are incubated for an additional 48 hrs at 37°C, 5 % CO2, 95 % air, and 100 % relative humidity. […] Bound stain is subsequently solubilized with 10 mMtrizma base, and the absorbance is read on an automated plate reader at a wavelength of 515 nm. […]

T1 sequence (P10415 whole entry): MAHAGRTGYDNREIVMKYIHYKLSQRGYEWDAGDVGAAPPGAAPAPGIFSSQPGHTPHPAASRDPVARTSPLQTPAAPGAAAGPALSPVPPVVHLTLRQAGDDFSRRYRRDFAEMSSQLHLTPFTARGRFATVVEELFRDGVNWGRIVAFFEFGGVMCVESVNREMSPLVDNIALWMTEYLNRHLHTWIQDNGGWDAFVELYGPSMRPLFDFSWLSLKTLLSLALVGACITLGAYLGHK

SMILES: CCCCc1c(-c2ccc(C(=O)NS(=O)(=O)c3ccc4ccccc4c3)cc2C(=O)N2CCc3ccccc3C2)c(CO)nn1-c1ccc(Oc2cccc(Cl)c2)cc1 [Compound 1]
- melting point: 42 to 44 °C
- IC50 [1]: 6 nM

SMILES: O=C(Nc1ccc(OCc2ccc(C(F)(F)F)cc2)cc1)c1ccc2nc(NC(=O)c3ccc(NCCc4ccccc4)c([N+](=O)[O-])c3)sc2c1 [13d, N-(4-((4-Trifluoromethylbenzyl)oxy)phenyl)-2-(3-nitro-4-(phenethylamino)benzamido)-benzo[d]thiazole-6-carboxamide]
- IC50 [2]: 363 nM
- melting point: 218 to 220 °C
- inhibition at 10 µM ([3]; Homo sapiens, leukemic SR cell lines, read-out: growth inhibition): 62.9%
- Cell growth percent [3]: 37.13%
- Cell growth percent [4]: 96.87%
- Cell growth percent [5]: 68.2%
- Cell growth percent [6]: 69.86%
- Cell growth percent [7]: 74.37%
- Cell growth percent [8]: 67.92%

SMILES: O=C(Nc1ccccc1)Nc1ccc2nc(NS(=O)(=O)c3ccc4ccccc4c3)sc2c1 [17a, N-(6-(3-Phenylureido)benzo[d]thiazol-2-yl)naphthalene-2-sulfonamide]
- inhibition at 10 µM [2]: 0%
- melting point: ≥ 300 °C

SMILES: O=C(c1ccc2nc(NS(=O)(=O)c3ccc4ccccc4c3)sc2c1)N1CCN(C/C=C/c2ccccc2)CC1 [7g, (E)-N-(6-(4-Cinnamylpiperazine-1-carbonyl)benzo[d]thiazol-2-yl)naphthalene-2-sulfonamide]
- inhibition at 10 µM [2]: 7%
- melting point: 240 to 242 °C

SMILES: Cc1ccc(COc2ccc(NC(=O)c3ccc4nc(NC(=O)c5ccc(NCCc6ccccc6)c([N+](=O)[O-])c5)sc4c3)cc2)cc1 [13c, N-(4-((4-Methylbenzyl)oxy)phenyl)-2-(3-nitro-4-(phenethylamino)benzamido)benzo-[d]thiazole-6-carboxamide]
- IC50 [2]: 471 nM
- inhibition at 10 µM [2]: 84%
- melting point: 138 to 140 °C
- inhibition against the used leukemia cell line (in words) [9]: poor inhibition
- Cell growth percent [3]: 82.5%
- Cell growth percent [4]: 75.74%
- Cell growth percent [5]: 93.91%
- Cell growth percent [6]: 87.5%
- Cell growth percent [7]: 94.74%
- Cell growth percent [8]: 87.23%

SMILES: Cc1cccc(NC(=O)Nc2ccc3nc(NS(=O)(=O)c4ccc5ccccc5c4)sc3c2)c1 [17e, N-(6-(3-(m-Tolyl)ureido)benzo[d]thiazol-2-yl)naphthalene-2-sulfonamide]
- inhibition at 10 µM [2]: 0%
- melting point: ≥ 300 °C

SMILES: O=C(Nc1ccc(OCc2cccc(Cl)c2)cc1)c1ccc2nc(NS(=O)(=O)c3ccc4ccccc4c3)sc2c1 [8b, N-(4-((3-Chlorobenzyl)oxy)phenyl)-2-(naphthalene-2-sulfonamido)benzo[d]thiazole-6-carboxamide]
- inhibition at 10 µM [2]: 16%
- melting point: 198 to 200 °C

SMILES: O=C(Nc1ccc(Oc2ccc(Br)cc2)cc1)c1ccc2nc(NC(=O)c3ccc(NCCc4ccccc4)c([N+](=O)[O-])c3)sc2c1 [14b]
- inhibition at 10 µM [2]: 47%
- melting point: 212 to 214 °C

SMILES: O=C(Nc1nc2ccc(C(=O)N3CCN(c4ccc(Cl)c(Cl)c4)CC3)cc2s1)c1ccc(NCCc2ccccc2)c([N+](=O)[O-])c1 [12b, N-(6-(4-(3,4-Dichlorophenyl)piperazine-1-carbonyl)benzo[d]thiazol-2-yl)-3-nitro-4-(phenethylamino)benzamide]
- inhibition at 10 µM [2]: 18%
- melting point: 176 to 178 °C

SMILES: O=C(Nc1ccc(OCc2cccc(F)c2)cc1)c1ccc2nc(NS(=O)(=O)c3ccc4ccccc4c3)sc2c1 [8a, N-(4-((3-Fluorobenzyl)oxy)phenyl)-2-(naphthalene-2-sulfonamido)-benzo[d]thiazole-6-carboxamide]
- inhibition at 10 µM [2]: 41%
- melting point: 146 to 148 °C

SMILES: O=C(c1ccc2nc(NS(=O)(=O)c3ccc4ccccc4c3)sc2c1)N1CCN(c2ccccc2F)CC1 [7b, N-(6-(4-(2-Fluorophenyl)piperazine-1-carbonyl)benzo[d]thiazol-2-yl)naphthalene-2-sulfonamide]
- inhibition at 10 µM [2]: 0%
- melting point: 290 to 292 °C
